Experimental data as given in patent publication US7888079B2, “Nε-acyl-L-lysine-specific aminoacylase” (Ajinomoto Co., Inc., priority 2005, dated 2011).
Like-named read-outs stand apart in the source and are kept apart here. Values belong to the molecule of their own block, whether it stands above or below them.

Legend:
[1] = test system: aminoacylase of the present invention (Nε-acyl-L-lysine-specific aminoacylase); experiment: Effect of various inhibitors on the hydrolyzing activity of the aminoacylase; assay type: biochemical, Streptomyces mobaraensis; details: hydrolysis activity where nothing was added = 100
Experimental: The activity of the enzyme of the present invention can be measured based on a method of measuring Nε-acetyl-L-lysine hydrolysis activity. For example, the activity of the enzyme of the present invention may be measured by incubating the enzyme with a defined concentration of Nε-acetyl-L-lysine as a substrate for 30 minutes at 37° C. (50 mM Tris-HCl buffer, pH 8.0), and assaying the released L-lysine. 1 U (unit) of the enzyme of the present invention is defined as the amount of the enzyme required to hydrolyze 1 micromole of Nε-acetyl-L-lysine per hour when incubated for 30 minutes at 37° C. (50 mM Tris-HCl buffer, pH 8.0) with 4 mM Nε-acetyl-L-lysine as the substrate, and the released L-lysine was assayed by the acidic ninhydrin method.
The activity of the enzyme of the present invention was measured by incubating the enzyme (50 mM Tris-HCl buffer, pH 8.0) for 30 minutes at 37° C. with a defined concentration of Nε-acetyl-L-lysine as the substrate, and assaying the released L-lysine. 1 U (unit) of the enzyme of the present invention is defined as the amount of the enzyme required to hydrolyze 1 micromole of Nε-acetyl-L-lysine per hour at 37° C. for 30 minutes in 50 mM Tris-HCl buffer, pH 8.0 with 4 mM of Nε-acetyl-L-lysine as the substrate, and the released L-lysine was assayed by acidic ninhydrin method.
The effects of various inhibitors on hydrolysis activity were compared by the measurement methods described above using a purified enzyme obtained as in Example 2. In Table 2, the enzyme activity is presented as a relative value (%) given 100 as hydrolysis activity where nothing was added.

[2] = test system: aminoacylase of the present invention (Nε-acyl-L-lysine-specific aminoacylase); experiment: Effects of metal ions on hydrolysis activity of enzyme dialyzed against 0-phenanthroline solution; assay type: biochemical, Streptomyces mobaraensis; details: final concentration 0.1 mM
[3] = test system: enzyme of the present invention (aminoacylase); experiment: Reactivity of the enzyme on various N-acetyl-L-amino acids (substrate specificity); assay type: biochemical, Streptomyces mobaraensis; details: for Specific activity (relative activity): relative to Nε-acetyl-L-Lys = 100%; for Specific activity: 1-hour reaction, 50 mM Tris-HCl buffer pH 8.2, 37° C., ND: below detection limit
Experimental: (§1) The reactivity of the enzyme of the present invention on various N-acetyl-L-amino acids (final concentration 4 mM) was studied to investigate substrate specificity. In Tables 4 and 5 below, the amount (micro mole) of substrate (acetyl-L-amino acid) hydrolyzed per 1 mg of enzyme protein in a 1-hour reaction in 50 mM Tris-HCl buffer (pH 8.2) at 37° C. is given as specific activity.

S. mobaraensis enzyme = experiment: Hydrolysis activity on Nε-acyl-L-lysines with various acyl groups, S. mobaraensis enzyme; assay type: biochemical, Streptomyces mobaraensis; details: for Specific activity, S. mobaraensis enzyme: 1-hour reaction, 50 mM Tris-HCl buffer pH 8.2, 37° C.
Experimental: as §1
(§2) Substrate specificity was investigated based on hydrolysis activity on Nε-acyl-L-lysines with various acyl groups.

A. pestifer enzyme [4] = experiment: Hydrolysis activity on Nε-acyl-L-lysines with various acyl groups, A. pestifer enzyme; assay type: biochemical, Achromobacter pestifer
From the text: as §2

A. pestifer enzyme [5] = details: values marked * from Chibata et al. (1970); cited from earlier work
[6] = hydrolysis activity with nothing added = 100

SMILES: [Cl-].[Cl-].[Co+2] [CoCl2]
Relative activity (%) [2]: 140.8%

SMILES: N[C@@H](CCC(=O)N[C@@H](CS)C(=O)NCC(=O)O)C(=O)O [GSH]
Relative activity (%) ([1]; added concentration 1 mM): 80.0%

SMILES: NC(=O)CI [Iodoacetamide]
Relative activity (%) ([1]; added concentration 1 mM): 83.1%

SMILES: c1cnc2c(c1)ccc1cccnc12 [0-phenanthroline]
Relative activity (%) ([1]; added concentration 1 mM): 10.3%

SMILES: [Ca+2].[Cl-].[Cl-] [CaCl2]
Relative activity (%) [2, 6]: 110.3%

SMILES: O=S(=O)([O-])[O-].[Fe+2] [FeSO4]
Relative activity (%) [2, 6]: 85.3%

SMILES: CC(=O)NCCCC[C@H](N)C(=O)O [Nε-acetyl-L-Lys]
Specific activity (relative activity) [3]: 100%
hydrolysis activity on N-acetyl-L-amino acids (in words) ([3]; substrate 4 mM): strong hydrolysis activity
Specific activity ([3]; substrate 4 mM): 3370 µmol/mg
Specific activity, S. mobaraensis enzyme (S. mobaraensis enzyme): 3,370 μmol/mg
Specific activity, A. pestifer enzyme (A. pestifer enzyme [5]): 2,700* μmol/mg

SMILES: O[C@@H](CS)[C@@H](O)CS [DTT]
Relative activity (%) ([1]; added concentration 1 mM): 64.7%

SMILES: O=S(=O)([O-])[O-].[Cu+2] [CuSO4]
Relative activity (%) [2, 6]: 67.2%

SMILES: O=C(O)c1cc[c]([Hg][Cl])cc1 [PCMB]
Relative activity (%) ([1]; added concentration 1 mM): 86.1%

SMILES: N[C@@H](CCCCNC(=O)CCl)C(=O)O [Nε-chloroacetyl-L-lys]
Specific activity, S. mobaraensis enzyme (S. mobaraensis enzyme): 1,030 μmol/mg
Specific activity, A. pestifer enzyme (A. pestifer enzyme [5]): 5,300* μmol/mg

SMILES: CCCCCCCC(=O)NCCCC[C@H](N)C(=O)O [Nε-octanoyl-L-Lys]
Specific activity, S. mobaraensis enzyme (S. mobaraensis enzyme): 570 µmol/mg
Specific activity, A. pestifer enzyme (A. pestifer enzyme [5]): 12,500* μmol/mg

SMILES: [Cl-].[K+] [KCl]
Relative activity (%) [2, 6]: 110.2%

SMILES: N[C@@H](CCCCNC(=O)c1ccccc1)C(=O)O [Nε-benzoyl-L-Lys]
Specific activity, S. mobaraensis enzyme (S. mobaraensis enzyme): 1,380 μmol/mg
Specific activity, A. pestifer enzyme (A. pestifer enzyme [5]): 15,000* μmol/mg

SMILES: O=C(O)CN(CCN(CC(=O)O)CC(=O)O)CC(=O)O [EDTA]
Relative activity (%) ([1]; added concentration 1 mM): 74.6%

The remaining lines, values ahead:

Relative activity (%) ([1]; added concentration 1 mM): 77.6%
SMILES: N[C@@H](CS)C(=O)O [L-cysteine]

Relative activity (%) [2, 6]: 121.1%
SMILES: O=S(=O)([O-])[O-].[Mg+2] [MgSO4]

Specific activity (relative activity) [3]: 2.1%
Specific activity ([3]; substrate 4 mM): 70 µmol/mg
SMILES: CC(=O)N[C@@H](CCCCN)C(=O)O [Nα-acetyl-L-Lys]

Relative activity (%) [2, 6]: 114.1%
SMILES: O=S(=O)([O-])[O-].[Mn+2] [MnSO4]

hydrolysis activity of the enzyme of the present invention (in words) (S. mobaraensis enzyme): no hydrolysis activity
Specific activity, S. mobaraensis enzyme (S. mobaraensis enzyme): 0 µmol/mg
SMILES: CCCCCCCCCCCC(=O)N[C@@H](CCCCN)C(=O)O [Nα-lauroyl-L-Lys]

Specific activity, S. mobaraensis enzyme (S. mobaraensis enzyme): 28 µmol/mg
hydrolysis activity of the enzyme from A. pestifer (in words) (A. pestifer enzyme [4]): very little hydrolysis activity
Specific activity, A. pestifer enzyme (A. pestifer enzyme [4]; value without literature mark): 0.4 µmol/mg
SMILES: CCCCCCCCCCCC(=O)NCCCC[C@H](N)C(=O)O [Nε-lauroyl-L-Lys]

Relative activity (%) ([1]; added concentration 10 mM): 87.5%
SMILES: OCCS [β-mercaptoethanol]

Relative activity (%) [2, 6]: 103.3%
SMILES: O=S(=O)([O-])[O-].[Zn+2] [ZnSO4]
